Reference: patent publication US8716316B2 (Hoffmann-La Roche Inc., priority 2009, dated 2014)

Biological target: T1, human mGlu5a receptor (Homo sapiens, UniProt P41594)
T1 construct: expressed in transfected cells
Experiment: Intracellular Ca2+ mobilization assay
Assay type: cell-based
Settings: for Emax: HEK293, read-out: Efficacy (%); for EC50: HEK-293 cells stably transfected with human mGlu5a receptor, pre-incubation 10-30 min with test compound, then L-glutamate at EC20 (typically around 80 μM), Fluo-4AM fluorescence, read-out: EC50 (nM) mGluR5 PAM
Description: A monoclonal HEK-293 cell line stably transfected with a cDNA encoding for the human mGlu5a receptor was generated; for the work with mGlu5 Positive Allosteric Modulators (PAMs), a cell line with low receptor expression levels and low constitutive receptor activity was selected to allow the differentiation of agonistic versus PAM activity. Cells were cultured according to standard protocols (Freshney, 2000) in Dulbecco's Modified Eagle Medium with high glucose supplemented with 1 mM glutamine, 10% (vol/vol) heat-inactivated bovine calf serum, Penicillin/Streptomycin, 50 μg/ml hygromycin and 15 μg/ml blasticidin (all cell culture reagents and antibiotics from Invitrogen, Basel, Switzerland).
About 24 hrs before an experiment, 5×10^4 cells/well were seeded in poly-D-lysine coated, black/clear-bottomed 96-well plates. The cells were loaded with 2.5 μM Fluo-4AM in loading buffer (1×HBSS, 20 mM HEPES) for 1 hr at 37° C. and washed five times with loading buffer. The cells were transferred into a Functional Drug Screening System 7000 (Hamamatsu, Paris, France), and 11 half logarithmic serial dilutions of test compound at 37° C. were added and the cells were incubated for 10-30 min. with on-line recording of fluorescence. Following this pre-incubation step, the agonist L-glutamate was added to the cells at a concentration corresponding to EC20 (typically around 80 μM) with on-line recording of fluorescence; in order to account for day-to-day variations in the responsiveness of cells, the EC20 of glutamate was determined immediately ahead of each experiment by recording of a full dose-response curve of glutamate.
Responses were measured as peak increase in fluorescence minus basal (i.e. fluorescence without addition of L-glutamate), normalized to the maximal stimulatory effect obtained with saturating concentrations of L-glutamate. Graphs were plotted with the % maximal stimulatory using XLfit, a curve fitting program that iteratively plots the data using Levenburg Marquardt algorithm. The single site competition analysis equation used was y=A+((B−A)/(1+((x/C)D))), where y is the % maximal stimulatory effect, A is the minimum y, B is the maximum y, C is the EC50, x is the log 10 of the concentration of the competing compound and D is the slope of the curve (the Hill Coefficient). From these curves the EC50 (concentration at which half maximal stimulation was achieved), the Hill coefficient as well as the maximal response in % of the maximal stimulatory effect obtained with saturating concentrations of L-glutamate were calculated.
A depression of the signal observed after addition of the EC20 concentration of L-glutamate was indicative of an inhibitory activity of the test compound.

[1] = maximal response in % of the maximal stimulatory effect obtained with saturating concentrations of L-glutamate, HEK-293 human mGlu5a cells, L-glutamate at EC20

T1 sequence (P41594 21-1180 isoform P41594-2 limits assumed): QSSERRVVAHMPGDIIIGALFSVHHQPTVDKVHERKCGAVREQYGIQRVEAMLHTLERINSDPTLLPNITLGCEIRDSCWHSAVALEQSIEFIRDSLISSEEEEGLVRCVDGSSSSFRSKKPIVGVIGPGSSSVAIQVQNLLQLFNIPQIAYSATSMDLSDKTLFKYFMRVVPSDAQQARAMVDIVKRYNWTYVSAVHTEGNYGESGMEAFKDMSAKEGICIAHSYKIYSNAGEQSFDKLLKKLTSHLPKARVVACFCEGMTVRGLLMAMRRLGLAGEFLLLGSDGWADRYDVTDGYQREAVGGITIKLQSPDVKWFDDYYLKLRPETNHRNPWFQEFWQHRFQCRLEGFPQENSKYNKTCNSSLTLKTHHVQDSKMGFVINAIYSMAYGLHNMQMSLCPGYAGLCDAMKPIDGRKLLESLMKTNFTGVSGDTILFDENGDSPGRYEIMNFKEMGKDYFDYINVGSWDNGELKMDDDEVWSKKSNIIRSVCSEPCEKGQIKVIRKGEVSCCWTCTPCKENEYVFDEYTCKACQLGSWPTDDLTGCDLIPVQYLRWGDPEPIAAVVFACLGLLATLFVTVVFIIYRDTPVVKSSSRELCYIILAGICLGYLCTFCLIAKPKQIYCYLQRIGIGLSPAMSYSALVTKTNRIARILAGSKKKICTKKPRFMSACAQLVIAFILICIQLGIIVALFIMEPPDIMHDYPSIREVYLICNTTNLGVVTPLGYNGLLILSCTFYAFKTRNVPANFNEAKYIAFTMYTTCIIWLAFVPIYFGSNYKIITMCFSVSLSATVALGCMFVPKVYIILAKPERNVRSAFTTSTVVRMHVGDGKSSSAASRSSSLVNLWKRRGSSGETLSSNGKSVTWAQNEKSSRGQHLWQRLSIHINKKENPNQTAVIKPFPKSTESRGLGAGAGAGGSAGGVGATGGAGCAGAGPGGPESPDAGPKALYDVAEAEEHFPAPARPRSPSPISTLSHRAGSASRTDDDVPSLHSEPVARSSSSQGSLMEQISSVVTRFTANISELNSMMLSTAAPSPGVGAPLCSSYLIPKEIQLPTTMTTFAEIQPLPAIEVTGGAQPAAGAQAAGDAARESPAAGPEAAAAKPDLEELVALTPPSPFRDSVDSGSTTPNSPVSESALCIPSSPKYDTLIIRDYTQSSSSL

Structure (SMILES)	Emax [1]	EC50	Efficacy (%) [1]
C(#Cc1ccc(OC2CCCCC2)nc1)c1ccccc1 [Example 28, 2-Cyclohexyloxy-5-phenylethynyl-pyridine]	61%	45 nM	–
O=C1OCCN1Cc1ccc(C#Cc2ccccc2)cn1 [Example 31, 3-(5-Phenylethynyl-pyridin-2-ylmethyl)-oxazolidin-2-one]	122%	56 nM	–
OC[C@H]1C[C@H](Oc2ncc(C#Cc3ccccc3)cn2)C1 [Example 26, trans-[3-(5-Phenylethynyl-pyrimidin-2-yloxy)-cyclobutyl]-methanol]	117%	99 nM	–
CC(c1ccc(C#Cc2ccccc2)cn1)N1CCOC1=O (racemic) [Example 41, rac-3-[1-(5-Phenylethynyl-pyridin-2-yl)-ethyl]-oxazolidin-2-one]	59%	94 nM	–
OC1CCCCC1Nc1ncc(C#Cc2ccccc2)cn1 (mixture of isomers) [Example 10, 2-(5-phenylethynyl-pyrimidin-2-ylamino)-cyclohexanol]	72%	340 nM	–
CN(c1ncc(C#Cc2ccccc2)cn1)C1CCOCC1 [Example 43, Methyl-(5-phenylethynyl-pyrimidin-2-yl)-(tetrahydro-pyran-4-yl)-amine]	84%	195 nM	–
CN1CCCN(Cc2ccc(C#Cc3ccccc3)cn2)C1=O [Example 40, 1-Methyl-3-(5-phenylethynyl-pyridin-2-ylmethyl)-tetrahydro-pyrimidin-2-one]	123%	140 nM	–
C[C@H]1CC[C@H](Nc2ncc(C#Cc3ccccc3)cn2)CC1 [Example 19, trans-(4-Methyl-cyclohexyl)-(5-phenylethynyl-pyrimidin-2-yl)-amine]	55%	75 nM	–
OC[C@H]1CC[C@H](Nc2ncc(C#Cc3ccccc3)cn2)CC1 [Example 6, trans-[4-(5-Phenylethynyl-pyrimidin-2-ylamino)-cyclohexyl]-methanol]	147%	844 nM	–
CC1(C)CC(=O)N(Cc2ccc(C#Cc3ccccc3)cn2)C1 [Example 33, 4,4-Dimethyl-1-(5-phenylethynyl-pyridin-2-ylmethyl)-pyrrolidin-2-one]	177%	132 nM	–
COC1CCCC(OC)C1Nc1ncc(C#Cc2ccccc2)cn1 (mixture of isomers) [Example 5, (2,6-dimethoxy-cyclohexyl)-(5-phenylethynyl-pyrimidin-2-yl)-amine]	105%	345 nM	–
CC1(COc2ncc(C#Cc3ccccc3)cn2)COC1 [Example 24, 2-(3-Methyl-oxetan-3-ylmethoxy)-5-phenylethynyl-pyrimidine]	88%	101 nM	–
C(#Cc1cnc(N[C@H]2C[C@@H]3CC[C@H]2O3)nc1)c1ccccc1 (racemic) [Example 4, rac-7-Oxa-bicyclo[2.2.1]hept-2-yl-(5-phenylethynyl-pyrimidin-2-yl)-amine]	113%	195 nM	–
O=C1N(Cc2ccc(C#Cc3ccccc3)cn2)CCN1c1ccccc1 [Example 37, 1-Phenyl-3-(5-phenylethynyl-pyridin-2-ylmethyl)-imidazolidin-2-one]	84%	103 nM	–
C(#Cc1cnc(NC2CCOCC2)nc1)c1ccccc1 [Example 2, (5-Phenylethynyl-pyrimidin-2-yl)-(tetrahydro-pyran-4-yl)-amine]	46%	65 nM	–
OC1CCC(Oc2ncc(C#Cc3ccccc3)cc2F)CC1 (racemic) [Example 27, rac-4-(3-Fluoro-5-phenylethynyl-pyridin-2-yloxy)-cyclohexanol]	90%	200 nM	–
CN1CCN(Cc2ccc(C#Cc3ccccc3)cn2)C1=O [Example 35, 1-Methyl-3-(5-phenylethynyl-pyridin-2-ylmethyl)-imidazolidin-2-one]	119%	68 nM	–
OC1CCC(Nc2ncc(C#Cc3ccccc3)cn2)C1 (mixture of isomers) [Example 11, 3-(5-phenylethynyl-pyrimidin-2-ylamino)-cyclopentanol]	78%	322 nM	–

Structure (SMILES)	Emax [1]	EC50	Efficacy (%) [1]
O=C1CCCCN1Cc1ccc(C#Cc2ccccc2)cn1 [Example 32, 1-(5-Phenylethynyl-pyridin-2-ylmethyl)-piperidin-2-one]	145%	268 nM	–
O[C@H]1CC[C@H](Nc2ncc(C#Cc3ccccc3)cn2)CC1 [Example 7, trans-4-(5-Phenylethynyl-pyrimidin-2-ylamino)-cyclohexanol]	100%	179 nM	–
C(#Cc1cnc(NC2CCCCC2)nc1)c1ccccc1 [Example 15, Cyclohexyl-(5-phenylethynyl-pyrimidin-2-yl)-amine]	112%	52 nM	–
O=C1OCCCN1Cc1ccc(C#Cc2ccccc2)cn1 [Example 34, 3-(5-Phenylethynyl-pyridin-2-ylmethyl)-[1,3]oxazinan-2-one]	119%	174 nM	–
OC1CCC(Oc2ncc(C#Cc3ccccc3)cn2)CC1 (racemic) [Example 22, rac-4-(5-Phenylethynyl-pyrimidin-2-yloxy)-cyclohexanol]	121%	168 nM	–
CC1(COc2ncc(C#Cc3ccccc3)cc2F)COC1 [Example 29, 3-Fluoro-2-(3-methyl-oxetan-3-ylmethoxy)-5-phenylethynyl-pyridine]	71%	135 nM	–
CC1CCN(Cc2ccc(C#Cc3ccccc3)cn2)C1=O (racemic) [Example 39, rac-3-Methyl-1-(5-phenylethynyl-pyridin-2-ylmethyl)-pyrrolidin-2-one]	120%	93 nM	–
O[C@H]1C[C@H](COc2ncc(C#Cc3ccccc3)cn2)C1 [Example 25, trans-3-(5-Phenylethynyl-pyrimidin-2-yloxymethyl)-cyclobutanol]	133%	291 nM	–
CC1(C)CC(Nc2ncc(C#Cc3ccccc3)cn2)CCC1O (single isomer, unassigned) [Example 17, (1S,4S or 1R,4R)-2,2-Dimethyl-4-(5-phenylethynyl-pyrimidin-2-ylamino)-cyclohexanol]	–	94 nM	93%
CC1(C)CC(Nc2ncc(C#Cc3ccccc3)cn2)CCC1O (racemic) [Example 16, 2,2-Dimethyl-4-(5-phenylethynyl-pyrimidin-2-ylamino)-cyclohexanol]	113%	324 nM	–
C(#Cc1ccc(NC2CCOCC2)nc1)c1ccccc1 [Example 14, (5-Phenylethynyl-pyridin-2-yl)-(tetrahydro-pyran-4-yl)-amine]	59%	110 nM	–
O=C1OCCN1Cc1ncc(C#Cc2ccccc2)cn1 [Example 42, 3-(5-Phenylethynyl-pyrimidin-2-ylmethyl)-oxazolidin-2-one]	120%	631 nM	–
C(#Cc1ccc(NC2CCCC2)nc1)c1ccccc1 [Example 13, Cyclopentyl-(5-phenylethynyl-pyridin-2-yl)-amine]	43%	43 nM	–
CC1(C)CC(Nc2ncc(C#Cc3ccccc3)cn2)CCO1 (racemic) [Example 3, rac-(2,2-Dimethyl-tetrahydro-pyran-4-yl)-(5-phenylethynyl-pyrimidin-2-yl)-amine]	89%	172 nM	–
CC1(C)CCC(=O)N1Cc1ccc(C#Cc2ccccc2)cn1 [Example 36, 5,5-Dimethyl-1-(5-phenylethynyl-pyridin-2-ylmethyl)-pyrrolidin-2-one]	82%	84 nM	–
OC1CCCC1Nc1ncc(C#Cc2ccccc2)cn1 (mixture of isomers) [Example 12, 2-(5-phenylethynyl-pyrimidin-2-ylamino)-cyclopentanol]	80%	560 nM	–
C(#Cc1cnc(NCC2CCOCC2)nc1)c1ccccc1 [Example 20, (5-Phenylethynyl-pyrimidin-2-yl)-(tetrahydro-pyran-4-ylmethyl)-amine]	80%	206 nM	–
CC1(CNc2ncc(C#Cc3ccccc3)cn2)COC1 [Example 21, (3-Methyl-oxetan-3-ylmethyl)-(5-phenylethynyl-pyrimidin-2-yl)-amine]	45%	78 nM	–
